{"source": "patent US20200188326A1", "about": "“COMPOSITIONS AND METHODS OF TREATMENT FOR MVID AND RELATED DISEASES” (Vanessa Research, Inc., priority 2015, published 2020)", "origin": "cited, not measured here", "test_system": "SLC26A3 exchanger", "details": "in the intestine"}
{"substance": "Vitamin A", "values": [{"measurement": "upregulation of the expression of SLC26A3 exchanger", "value": "up to 4 fold"}]}
